Here are results for three compounds from PMC6310130 (Molecular and biochemical parasitology, 2014).

pIC50: −log10 of the molar value. Where a SMILES comes first, the peptide text is derived from it. [ ]: non-standard residue; d: D form. The star is where a group is joined. Sta = CC(C)C[C@H](N)[C@@H](O)CC(=O)O; Isovaleryl = CC(C)CC(=O)*

The experiment deals with Plasmepsin V (Plasmodium falciparum, UniProt Q8I6Z5). The experiment can be described thus: fluorogenic HRPII peptide cleavage assay, recombinant refolded enzyme, pH […]. The class given is biochemical.
Plasmepsin V, sequence (Q8I6Z5 81-521): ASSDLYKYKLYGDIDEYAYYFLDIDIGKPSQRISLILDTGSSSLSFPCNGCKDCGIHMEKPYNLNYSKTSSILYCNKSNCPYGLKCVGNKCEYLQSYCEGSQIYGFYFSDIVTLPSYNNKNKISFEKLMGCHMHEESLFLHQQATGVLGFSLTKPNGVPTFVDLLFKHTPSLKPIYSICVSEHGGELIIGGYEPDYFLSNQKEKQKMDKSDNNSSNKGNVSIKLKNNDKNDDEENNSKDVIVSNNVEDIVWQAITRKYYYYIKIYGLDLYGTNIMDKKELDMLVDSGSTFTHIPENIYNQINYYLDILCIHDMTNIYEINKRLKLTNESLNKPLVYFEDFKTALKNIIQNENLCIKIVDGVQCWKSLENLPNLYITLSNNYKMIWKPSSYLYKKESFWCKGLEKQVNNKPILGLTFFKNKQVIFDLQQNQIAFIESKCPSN

Regarding `CC(C)CC(=O)N[C@H](C(=O)N[C@H](C(=O)N[C@@H](CC(C)C)[C@@H](O)CC(=O)N[C@@H](C)C(=O)N[C@@H](CC(C)C)[C@@H](O)CC(=O)O)C(C)C)C(C)C` [pepstatin A] (Isovaleryl-VV[Sta]A[Sta]-OH), the pIC50 is 4.66.
The figure for KNI-10742 is 3.97.
On to KNI-10743, for which the pIC50 is 4.36.
